Test results from patent US4920117A, “4,5,5a,6-tetrahydro-3H-isoxazolo(5,4,3-kl)acridines, pharmaceutical compositions and use” (Hoechst-Roussel Pharmaceuticals Inc., priority 1989, dated 1990).

Assays:
acetylcholinesterase = acetylcholinesterase (Homo sapiens, UniProt P22303); assay: Cholinesterase inhibition assay (photometric method of Ellman et al.); format: biochemical; settings: read-out: Cholinesterase Inhibition IC50 (molar conc.)
[1] = test system: scopolamine induced memory deficit in mice; assay: Dark Avoidance Assay (reversal of scopolamine induced memory deficit); format: in vivo; settings: retest after 24 hours
Protocol: This utility can also be ascertained by determining the ability of these compounds to restore cholinergically deficient memory in the Dark Avoidance Assay. In this assay mice are tested for their ability to remember an unpleasant stimulus for a period of 24 hours. A mouse is placed in a chamber that contains a dark compartment; a strong incadescent light drives it to the dark compartment, where an electric shock is administered through metal plates on the floor. The animal is removed from the testing apparatus and tested again, 24 hours later, for the ability to remember the electric shock.
If scopolamine, an anticholinergic that is known to cause memory impairment, is administered before an animal's initial exposure to the test chamber, the animal re-enters the dark compartment shortly after being placed in the test chamber 24 hours later. This effect of scopolamine is blocked by an active test compound, resulting in a greater interval before re-entry into the dark compartment.
The results for an active compound are expressed as the percent of a group of animals in which the effect of scopolamine is blocked, as manifested by an increased interval between being placed in the test chamber and re-entering the dark compartment.

[2] = test system: 2-phenyl-1,4-benzoquinone-induced writhing in mice; assay: 2-phenyl-1,4-benzoquinone-induced writhing test in mice (analgesia); format: in vivo
From the text: The compounds of Formula I of the present invention are useful as analgesic agents due to their ability to alleviate pain in mammals. […] Exptl. Biol. Med., 95, 729 (1957)].

Sequence of acetylcholinesterase (P22303 32-614): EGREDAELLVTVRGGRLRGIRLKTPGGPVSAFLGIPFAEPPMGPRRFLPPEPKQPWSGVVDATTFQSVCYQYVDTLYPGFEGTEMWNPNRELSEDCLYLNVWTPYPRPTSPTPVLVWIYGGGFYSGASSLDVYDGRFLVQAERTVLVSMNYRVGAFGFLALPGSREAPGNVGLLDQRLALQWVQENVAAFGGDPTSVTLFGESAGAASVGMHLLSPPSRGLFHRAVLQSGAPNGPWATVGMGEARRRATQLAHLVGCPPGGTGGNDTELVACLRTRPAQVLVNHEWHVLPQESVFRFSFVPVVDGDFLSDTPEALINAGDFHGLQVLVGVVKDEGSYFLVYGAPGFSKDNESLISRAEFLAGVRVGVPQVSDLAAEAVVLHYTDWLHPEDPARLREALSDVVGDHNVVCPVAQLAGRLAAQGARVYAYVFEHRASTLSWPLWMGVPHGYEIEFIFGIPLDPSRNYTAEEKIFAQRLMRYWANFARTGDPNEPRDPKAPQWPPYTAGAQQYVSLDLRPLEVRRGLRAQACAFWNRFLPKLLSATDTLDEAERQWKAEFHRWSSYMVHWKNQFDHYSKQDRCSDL

`c1ccc2c(c1)NC1CCCc3onc-2c31` (stereo not shown) [4,5,5a,6-Tetrahydro-3H-isoxazolo[5,4,3-kl]acridine] was tested, and the IC50 (acetylcholinesterase) was 13 µM.

With `c1ccc2c(c1)nc1c3c(onc32)CCC1` [4,5-Dihydro-3H-isoxazolo[5,4,3-kl]acridine] the IC50 (acetylcholinesterase) was 3.9 µM and the “% of animals with scopolamine induced memory deficit reversal” value (shortened to “% of animals”) ([1]; 0.63 mg/kg body weight) was 20%.

With `C=CCN1c2ccccc2-c2noc3c2C1CCC3` (stereo not shown) [6-(2-Propenyl)-4,5,5a,6-tetrahydro-3H-isoxazolo[5,4,3-kl]acridine] the “% of animals” value ([1]; 1.25 mg/kg body weight) was 27%.

`CCNC(=O)N1c2ccccc2-c2noc3c2C1CCC3` (stereo not shown) [6-Ethylaminocarbonyl-4,5,5a,6-tetrahydro-3H-isoxazolo[5,4,3-kl]acridine] was tested, and the “Analgesic PQW % Inhibition of Writhing at 20 mg/kg., S.C.” value (“Analgesic PQW % Inhibition … S.C.” below) [2] was 44%.

For `C#CCNC(=O)N1c2ccccc2-c2noc3c2C1CCC3` (stereo not shown) [N-(2-Propynyl)-4,5,5a,6-tetrahydro-3H-isoxazolo-[5,4,3-kl]acridine-6-carboxamide], the “Analgesic PQW % Inhibition … S.C.” value [2] was 29%.

With `O=C(NCCN1CCOCC1)N1c2ccccc2-c2noc3c2C1CCC3` (stereo not shown) [N-[2-(4-Morpholinyl)ethyl]-4,5,5a,6-tetrahydro-3H-isoxazolo[5,4,3-kl]acridine-6-carboxamide] the “Analgesic PQW % Inhibition … S.C.” value [2] was 52%.

In the case of `O=C(NCC#CCN1CCCC1)N1c2ccccc2-c2noc3c2C1CCC3` (stereo not shown) [N-[4-(1-Pyrrolidinyl)-2-butyn-1-yl]-4,5,5a,6-tetrahydro-3H-isoxazolo[5,4,3-kl]acridine-6-carboxamide], the “Analgesic PQW % Inhibition … S.C.” value [2] is reported as 33%.

`CNC(=O)Oc1ccc2c(c1)[C@]1(C)CCN(C)[C@@H]1N2C` [Physostigmine, reference compound] was tested, and the “% of animals” value ([1]; 0.31 mg/kg body weight, reference) was 20%.

With `CCC(=O)O[C@](Cc1ccccc1)(c1ccccc1)[C@H](C)CN(C)C` [Propoxyphene, reference compound] the “Analgesic PQW % Inhibition of Writhing” value ([2]; 3.9 mg/kg, s.c., reference compound) was 50%.
